Measured values reported in patent US20200022957A1, “KINASE AND UBIQUITIN LIGASE INHIBITORS AND USES THEREOF” (ALDA S.R.L., priority 2015, published 2020).

What was measured:
Type in all cases: cell-based, human
[1] = test system: F508del-CFTR; test: F508del-CFTR proteostasis by western blotting (ER band B / Golgi-processed band C) in CFBE cells; conditions: for levels of band B and band C of F508del-CFTR: concentration series; for decrease in levels of F508del-CFTR: rapid, abolished by MLK3 downregulation
Protocol: Cells were washed three times in ice-cold Dulbecco's phosphate-buffered saline, and lysed in RIPA buffer (150 mM NaCl, 1% Triton X-100, 0.5% deoxycholic acid, 0.1% SDS, 20 mM Tris-HCl, pH 7.4), supplemented with protease inhibitor cocktail and phosphatase inhibitors. The lysates were clarified by centrifugation at 15000×g for 15 min, and the supernatants were resolved by SDS-PAGE. BCA Protein Assay kit (Pierce) was used to quantitate protein levels before loading. The western blots were decorated with appropriate antibodies and developed using ECL. The blots were then exposed to x-ray films and exposure time was varied to obtain optimal signal. The x-ray films were then scanned and the bands were quantitated using ImageJ gel-analysis tool. The protein concentration and the exposures used for quantitation of the blots were optimized to be in a linear range of detection.
Inventors then turned to experimental validation of the role of the CORE genes in the regulation of F508del-CFTR proteostasis. Experiments were carried out using a characterised biochemical assay that detects both the amount of core-glycosylated CFTR trapped in the ER (band B with Western blotting) and the amount of CFTR fully glycosylated in the Golgi (most of which presumably resides at the PM; band C with Western blotting).

[2] = test system: ATP7B H1069Q; test: Morphological assay of ATP7B H1069Q exit from ER to Golgi in HeLa cells (fluorescence microscopy); conditions: HeLa cells expressing ATP7B H1069Q-GFP; 24 h
Protocol: Cells were transfected with ATP7B-WT-GFP or ATP7B-H1069Q-GFP, incubated overnight with 200 μM BCS and/or drugs. Fixed cells were further labeled for TGN46 to mark and visualize the Golgi area under a confocal microscope. Under low copper conditions ATP7B-WT traffics to the Golgi from the ER, while ATP7B-H1069Q is retained within the ER. If the drug treatments induce the rescue of trafficking from the ER to the Golgi, the ATP7B-H1069Q-GFP fluorescence in the Golgi area increases. This is measured by quantifying (in 10 different microscopy fields in 100 cells) the increased in fluorescence of ATP7BWT-GFP or ATP7BH1069Q-GFP in the Golgi area (marked by TGN46) and normalizing this value to total cell fluorescence
CFBE or HeLa cells (in case of ATP7B) were transfected with constructs encoding the indicated mutant proteins and treated with JNKi II for 48 h.

[3] = test system: ATP7BH1069Q; test: Immunofluorescence assay for correction of ATP7B: cells with ATP7BH1069Q signal in the ER, HeLa cells; conditions: 24 h, SB202190 5 μM, VX-745 1 μM, SP600125 2 μM, Oxozeaenol 5 μM, 100 μM CuSO4 2 h
Protocol: (A) HeLa cells were infected with Ad-ATP7BWT-GFP (Chesi et al., 2016) or Ad-ATP7BH1069Q-GFP, incubated overnight with 200 μM BCS, and incubated for an additional 2 h with 100 μM CuSO4. In response to Cu, ATP7BWT traffics from the Golgi to PM and vesicle, while ATP7BH1069Q are retained within the ER under high Cu conditions. Addition of p38 inhibitor SB202190 (5 μM), VX-745(1 μM), JNK inhibitor SP600125 (2 μM) and Oxozeaenol (5 μM) (as indicated in corresponding panels) to the cells 24 h corrects ATP7BH1069Q from the ER to PM and vesicles (arrows) (B) Cells were treated as in panel A. The percentage of the cells (average±SD, n=50 fields) with an ATP7B signal in the ER, were calculated.
Cells were fixed with 4% paraformaldehyde in 0.2 M HEPES for 10 mins, permeabilized, labeled with primary and secondary antibodies, and examined with a ZEISS LSM 700 confocal microscope equipped with a 63×1.4 numerical aperture oil objective. The cells were scored based on the disappearance of ATP7B from the ER.

**Q.** How did the “levels of band B and band C of F508del-CFTR” value ([1]; 48 h) turn out when `Cc1ccc(Nc2nccc(N(C)c3ccc4c(C)n(C)nc4c3)n2)cc1S(N)(=O)=O` [Pazopanib] was run?
**A.** robust increases

**Q.** With `C=C(c1ccc(C(=O)O)cc1)c1cc2c(cc1C)C(C)(C)CCC2(C)C` [Bexarotene] as the compound, how does the “rescue of ATP7B H1069Q localization (ER exit to the Golgi compartment)” value (“rescue of ATP7B H1069Q localization” for short) [2] read?
**A.** potently rescue

**Q.** What about the “levels of band B and band C of F508del-CFTR” value ([1]; 48 h) of the same compound?
**A.** robust increases

**Q.** With `C=C(C)[C@@H]1CCC(C)=C[C@H]1c1c(O)cc(CCCCC)cc1O` [Cannabidiol] as the compound, how does the “rescue of ATP7B H1069Q localization” value [2] read?
**A.** potently rescue

**Q.** Which “level of ER-localised band B of F508del-CFTR” value ([1]; 48 h) does the source give for `Cc1ccc(NC(=O)C2(c3ccc4c(c3)OC(F)(F)O4)CC2)nc1-c1cccc(C(=O)O)c1` [VX-809] here?
**A.** limited increase

**Q.** And the “increase of band C levels over control” value ([1]; VX-809 as reference for correction)?
**A.** 4-5 fold

**Q.** With `N#Cc1c(NC(=O)c2cccc3ccccc23)sc2c1CCCC2` [JNKi IX] as the compound, how does the “levels of band B and band C of F508del-CFTR” value ([1]; 48 h) read?
**A.** robust increases

**Q.** TNF-α was tested. Which “decrease in levels of F508del-CFTR” value [1] did it give?
**A.** 50%

**Q.** Which “levels of band B and band C of F508del-CFTR” value ([1]; 48 h) does the source give for `CC(O)C(=O)O.CN1CCN(c2ccc3nc(-c4c(N)c5c(F)cccc5[nH]c4=O)[nH]c3c2)CC1` [Dovitinib lactate] here?
**A.** robust increases

**Q.** For `O=C1c2c(O)ccc(O)c2C(=O)c2c(NCCNCCO)ccc(NCCNCCO)c21` [mitoxantrone], which “levels of band B and band C of F508del-CFTR” value ([1]; 48 h) is on record?
**A.** potently increase

**Q.** `OO` [H2O2] was tested. Which F508del-CFTR levels ([1]; H2O2 at non-toxic concentrations, within a few minutes) did it give?
**A.** marked drop

**Q.** `COc1ccc(CCN(C)CCCC(C#N)(c2ccc(OC)c(OC)c2)C(C)C)cc1OC` (centres unmarked) [verapamil] was tested. Which “correction of F508del-CFTR (levels of band C)” value (from here on “correction of F508del-CFTR”) ([1]; 48 h) did it give?
**A.** did not show any effect

**Q.** For `Oc1ccc(-c2nc(-c3ccncc3)c(-c3ccc(F)cc3)[nH]2)cc1` [SB202190], which “percentage of the cells exhibiting ATP7BH1069Q in the ER” value [3] is on record?
**A.** reduced

**Q.** With `Fc1ccc(C(c2ccc(F)cc2)N2CCN(C/C=C/c3ccccc3)CC2)cc1` [Flunarizine] as the compound, how does the “correction of F508del-CFTR” value ([1]; 48 h) read?
**A.** increased

**Q.** With `Cc1cc(Nc2cc(N3CCN(C)CC3)nc(/C=C/c3ccccc3)n2)n[nH]1` [ENMD-2076] as the compound, how does the “rescue of ATP7B H1069Q localization” value [2] read?
**A.** potently rescue

**Q.** For `COC(=O)[C@@]1(O)C[C@H]2O[C@]1(C)n1c3ccccc3c3c4c(c5c6ccccc6n2c5c31)C(=O)NC4` [K252a], which “correction of F508del-CFTR” value ([1]; 48 h) is on record?
**A.** no clear effects

**Q.** For `O=[N+]([O-])c1cnc(Sc2nc3ccccc3s2)s1` [JNKi XI], which “levels of band B and band C of F508del-CFTR” value ([1]; 48 h) is on record?
**A.** robust increases

**Q.** With TGF-β as the compound, how does the “decrease in levels of F508del-CFTR” value [1] read?
**A.** 50%

**Q.** Which “correction of F508del-CFTR” value ([1]; 48 h) does the source give for `O=C(O)c1ccc2c3c1cccc3c(=O)n1c3ccccc3nc21` [STO-609] here?
**A.** did not show any effect

**Q.** `CC(=O)Nc1ccc(C(=O)NC(C)(C)C)cc1` [CPI-1189] was tested. Which “rescue of ATP7B H1069Q localization” value [2] did it give?
**A.** potently rescue
